Assays:
[1] = target: T1, SOS1/KRAS G12C protein binding (Homo sapiens, UniProt Q07889); assay: Inhibition of SOS1/KRAS G12C protein binding (665 nm/615 nm ratio); conditions: 15 nM KRAS G12C (aa 1-169), 2.5 nM His-SOS1 (aa 564-1049); nonlinear regression
T1 construct: His-SOS1 (aa 564-1049) protein; purchased Pharmaron Beijing Co., Ltd. 20200717 (His-SOS1); 20200707 (KRAS G12C)
T1 sequence (Q07889 564-1049): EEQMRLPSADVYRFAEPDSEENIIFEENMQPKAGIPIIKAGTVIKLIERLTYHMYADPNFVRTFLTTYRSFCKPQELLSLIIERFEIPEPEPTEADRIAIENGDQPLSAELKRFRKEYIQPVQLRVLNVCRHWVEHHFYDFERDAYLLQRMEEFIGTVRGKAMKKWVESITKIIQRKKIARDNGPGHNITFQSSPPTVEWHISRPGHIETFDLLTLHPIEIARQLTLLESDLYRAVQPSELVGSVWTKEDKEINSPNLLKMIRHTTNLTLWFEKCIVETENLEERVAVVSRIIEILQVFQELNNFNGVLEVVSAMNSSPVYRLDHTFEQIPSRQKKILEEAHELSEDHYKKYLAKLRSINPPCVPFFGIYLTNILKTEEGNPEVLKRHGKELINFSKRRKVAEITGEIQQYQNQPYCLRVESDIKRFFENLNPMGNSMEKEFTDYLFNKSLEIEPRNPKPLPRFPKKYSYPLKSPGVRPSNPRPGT
Method: Efficacy Example 2: Evaluation of Inhibition of SOS1/KRAS G12C Protein Binding
A test compound was dissolved in 100% DMSO to give a solution at a concentration of 10 mM. 10 μL of the solution was taken and 3-fold diluted with 100% DMSO to prepare test compound solutions with concentrations of 10000 nM to […], for a total of 11 concentrations. The compound solutions at different concentrations were then transferred to a 384-well plate at 0.1 μL/well using a sonic droplet device Echo (Labcyte), and 2 replicate wells were set for each concentration.
A 15 nM KRAS G12C (aa 1-169) protein (Pharmaron Beijing Co., Ltd., 20200707) was transferred to the 384-well reaction plate at 5 μL/well using the sonic droplet device Echo (Labcyte), and then the reaction plate was centrifuged in a centrifuge (Eppendorf, 5810R) at 1000 rpm/min for 1 min.
A 2.5 nM His-SOS1 (aa 564-1049) protein (Pharmaron Beijing Co., Ltd., 20200717) was transferred to the 384-well reaction plate at 5 μL/well using the sonic droplet device Echo (Labcyte), and then the reaction plate was centrifuged in a centrifuge (Eppendorf, 5810R) at 1000 rpm/min for 1 min and incubated at 25° C. for 15 min.
A mixed solution of Antibody 1 (MAb Anti-6his-Tb cryptate Gold, Cisbio, 61HI2TLA) and Antibody 2 (MAb Anti-GST-XL665, Cisbio, 61GSTXLA) was transferred to the 384-well reaction plate at 10 μL/well using the sonic droplet device Echo (Labcyte), and then the reaction plate was centrifuged in a centrifuge (Eppendorf, 5810R) at 1000 rpm/min for 1 min and incubated at 25° C. for 120 min.
The 665 nm/615 nm optical density ratio was read using an Envision multifunctional microplate reader (Perkin Elmer, Envision 2104).
Analysis of Original Data:
The IC50 values of the compounds were fitted by a nonlinear regression equation of Graphpad Prism 8. The results are shown in Table 2: • Negative control: DMSO
The IC50 (half maximal inhibitory concentration) values of the compounds were calculated using the following non-linear fitting equation:
[formula] • X: Log of cpd concentration • Y: 665 nm/615 nm ratio

[2] = system: ERK phosphorylation in DLD-1 cells; assay: In-cell Western blot assay for ERK phosphorylation in DLD-1 cells; format: cell-based; conditions: Homo sapiens, p-ERK signal corrected using DMSO and BI-3406, four-parameter fit
Method: Efficacy Example 1: In-cell Western Blot Assay for ERK Phosphorylation in DLD-1 Cells
DLD-1 cells (ATCC, CCL-221) were thawed and cultured in a culture medium containing RPMI1640 (Gibco, A10491-01), 10% fetal bovine serum (FBS) (Transgene, FS201-02) and 1% antibiotic P/S (Gibco, 15140-122) for 3 days until the cell viability was good. The cells were inoculated into a 384-well plate and incubated at 37° C. with 5% CO2 overnight. A test compound, a positive control compound, and a negative control were added. The compound was at concentrations of 10000 nM to 1.52 nM (3-fold dilution) and […], for a total of 10 concentrations. The mixture was well mixed and incubated at 37° C. with 5% CO2. The cells were washed twice with PBS (Solarbio, P1010), and then a blocking buffer was added. After 1 h of blocking at room temperature, a primary antibody mixture (phospho-p44/42 MAPK (T202/Y204) Rabbit mAb (CST, […]), GAPDH (D4C6R) Mouse mAb) (CST, 97166S) was added, followed by overnight incubation at 4° C. The cells were washed 3 times with PBST (PBS containing 0.05% Tween-20 (Solarbio, T8220)), and a secondary antibody mixture (goat anti rabbit 800CW (LI-COR, 926-32211), goat anti mouse 680RD (LI-COR, 926-68070)) was added, followed by incubation at room temperature in the dark. The 384-well plate was reversed and centrifuged at 1000 rpm for 1 min, and read on an Odyssey CLx fluorescence imaging system (LI-COR) to obtain fluorescence signal values, which were corrected using DMSO and BI-3406.
[formula] • H=Ave (DMSO) • L=Ave (BI-3406) • SD (H)=STDEV (DMSO) • SD (L)=STDEV (BI-3406)
The IC50 values of the compounds were calculated using a four-parameter fitting algorithm, specifically as follows:
[formula] • X: Log of cpd concentration • Y: Ave (relative pERK) • Top and Bottom: Plateaus in same units as Y • log IC50: same log units as X • HillSlope: Slope factor or Hill slope.

Row | Compound | IC50 [1] | IC50 [2]
1 | CCOc1c(=O)n(C2(C)CC2)cc2c(N[C@H](C)c3cccc(C(F)F)c3F)nc(C)nc12 [SZ-022364] | 22.2 nM | 303 nM
2 | COc1c(=O)n(C2(CF)CC2)cc2c(N[C@H](C)c3cccc(C(C)(F)F)c3F)nc(C)nc12 [SZ-022357] | 3.68 nM | 165 nM
3 | COc1c(=O)n(C2(C(F)(F)F)CC2)cc2c(N[C@H](C)c3cccc(C(F)F)c3F)nc(C)nc12 [SZ-022325] | 15.9 nM | 216 nM
4 | COc1c(=O)n(C2(C(F)F)CC2)cc2c(N[C@H](C)c3cccc(C(F)F)c3F)nc(C)nc12 [SZ-022244] | 17.8 nM | 265 nM
5 | [2H]C([2H])([2H])Oc1c(=O)n(C2(C(F)F)CC2)cc2c(N[C@H](C)c3cccc(C#N)c3C)nc(C)nc12 [SZ-022382] | 8.86 nM | 729 nM
6 | [2H]C([2H])([2H])Oc1c(=O)n(C2(C(F)(F)F)CC2)cc2c(N[C@H](C)c3cccc(C#N)c3C)nc(C)nc12 [SZ-022384] | 15.4 nM | 884 nM
7 | COc1c(=O)n(C2(CF)CC2)cc2c(N[C@H](C)c3cccc(C(F)F)c3F)nc(C)nc12 [SZ-022301] | 6.5 nM | 262 nM
8 | COc1c(=O)n(C2(C)CC2)cc2c(N[C@H](C)c3cccc(C(F)F)c3F)nc(C)nc12 [SZ-022300] | 12.1 nM | 412 nM
9 | CCOc1c(=O)n(C2(C(F)(F)F)CC2)cc2c(N[C@H](C)c3cccc(C(F)(F)F)c3C)nc(C)nc12 [SZ-022340] | 15.2 nM | 367 nM
10 | Cc1nc(N[C@H](C)c2cccc(C(F)F)c2F)c2cn(C3(C(F)F)CC3)c(=O)c(OCC3CC3)c2n1 [SZ-022314] | 17.3 nM | 563 nM
11 | CSc1c(=O)n(C2(C(F)F)CC2)cc2c(N[C@H](C)c3cccc(C(F)F)c3F)nc(C)nc12 [SZ-022306] | 12.5 nM | 213 nM
12 | COc1c(=O)n(C2(C(F)F)CC2)cc2c(N[C@H](C)c3cccc(C(C)(F)F)c3)nc(C)nc12 [SZ-022350] | 16.7 nM | 211 nM
13 | CCOc1c(=O)n(C2(CF)CC2)cc2c(N[C@H](C)c3cccc(C(F)(F)F)c3C)nc(C)nc12 [SZ-022342] | 7.15 nM | 57 nM
14 | COc1c(=O)n(C2(C(F)F)CC2)cc2c(N[C@H](C)c3cccc4c3OCC4(F)F)nc(C)nc12 [SZ-022330] | 5.02 nM | 117 nM
15 | COc1c(=O)n(C2(C(F)F)CC2)cc2c(N[C@H](C)c3ccc(-c4ccccc4CN(C)C)s3)nc(C)nc12 [SZ-022373] | 1.4 nM | 42 nM
16 | CCOc1c(=O)n(C2(C(F)F)CC2)cc2c(N[C@H](C)c3cccc(C(F)F)c3F)nc(C)nc12 [SZ-022296] | 9.43 nM | 143 nM
17 | CCOc1c(=O)n(C2(C(F)(F)F)CC2)cc2c(N[C@H](C)c3cccc(C(F)F)c3F)nc(C)nc12 [SZ-022362] | 12.4 nM | 77 nM
18 | COc1c(=O)n(C2(C(F)F)CC2)cc2c(N[C@H](C)c3cccc4c(F)coc34)nc(C)nc12 [SZ-022330B] | 9.99 nM | 400 nM
19 | CCOc1c(=O)n(C2(C)CC2)cc2c(N[C@H](C)c3cccc(C(C)(F)F)c3F)nc(C)nc12 [SZ-022359] | 8.57 nM | 231 nM
20 | COc1c(=O)n(C2(C(F)F)CC2)cc2c(N[C@H](C)c3cccc(C(F)(F)C(C)(C)O)c3F)nc(C)nc12 [SZ-022317] | 4.54 nM | 371 nM
21 | CCOc1c(=O)n(C2(CF)CC2)cc2c(N[C@H](C)c3cccc(C(C)(F)F)c3F)nc(C)nc12 [SZ-022361] | 4.62 nM | 164 nM
22 | COc1c(=O)n(C2(C(F)F)CC2)cc2c(N[C@H](C)c3cccc(C(F)F)c3C)nc(C)nc12 [SZ-022302] | 3.79 nM | 104 nM
23 | CCOc1c(=O)n(C2(C(F)F)CC2)cc2c(N[C@H](C)c3cccc(C(F)(F)F)c3C)nc(C)nc12 [SZ-022339] | 7.25 nM | 186 nM
24 | Cc1nc(N[C@H](C)c2cccc(C(F)F)c2F)c2cn(C3(C(F)F)CC3)c(=O)c(OCC(F)F)c2n1 [SZ-022368] | 23.5 nM | 249 nM

— US20240327401A1, “FUSED RING COMPOUND, PHARMACEUTICAL COMPOSITION, AND APPLICATION THEREOF” (EVOPOINT BIOSCIENCES CO., LTD., priority 2021, published 2024)
